ChEMBL document CHEMBL3885861, “Open TG-GATES”

Species on record: Rattus norvegicus
Assay: Open TG-GATES - Regimen: Single
Assay type: toxicity, organism-based, Sprague-Dawley
Design: regimen Single, gender Male, age 6 weeks
Settings: in vivo, po, 0 mg/kg, route gavage, dose level Control; for APTT / Bas / Eos / Fbg / Hb / Ht / Lym / MCH / MCHC / MCV / Mono / Neu / PT / Plat / RBC / Ret / WBC: tissue Blood; for KIDNEY_L / KIDNEY_R / KIDNEY_TOTAL: tissue Kidney; for LIVER: tissue Liver; for A/G / ALP / ALT / AST / BUN / CRE / Ca / Cl / DBIL / GLC / IP / K / LDH / Na / PL / RALB / TBIL / TC / TG / TP / gamma-GTP: tissue Plasma

CCN1CCCC1CNC(=O)c1cc(S(N)(=O)=O)ccc1OC (configuration not stated) [SULPIRIDE]
TERMINAL_BW (3 h): 201.8 g | APTT (3 h): 17.6 s | Bas (3 h): 0% | Eos (3 h): 0.6% | Fbg (3 h): 247.8 mg/dL | Hb (3 h): 13.4 g/dL | Ht (3 h): 41.4% | Lym (3 h): 80.2% | MCH (3 h): 20.9 pg | MCHC (3 h): 32.3% | MCV (3 h): 64.8 fL | Mono (3 h): 2.4% | Neu (3 h): 16% | PT (3 h): 14.1 s | Plat (3 h): 117.7 x10_4/uL | RBC (3 h): 639.8 x10_4/ul | Ret (3 h): 7.5% | WBC (3 h): 81.5 x10_2/uL | KIDNEY_L (3 h): 0.9 g | KIDNEY_R (3 h): 0.9 g | KIDNEY_TOTAL (3 h): 1.9 g | LIVER (3 h): 8.6 g | A/G (3 h): 0.9 | ALP (3 h): 1902.2 IU/L | ALT (3 h): 49 IU/L | AST (3 h): 92.6 IU/L | BUN (3 h): 10.6 mg/dL | CRE (3 h): 0.2 mg/dL | Ca (3 h): 11 mg/dL | Cl (3 h): 105.8 meq/L | DBIL (3 h): 0.01 mg/dL | GLC (3 h): 177 mg/dL | IP (3 h): 8.9 mg/dL | K (3 h): 4.5 meq/L | LDH (3 h): 173.6 IU/L | Na (3 h): 140.8 meq/L | PL (3 h): 116 mg/dL | RALB (3 h): 2.4 g/dL | TBIL (3 h): 0.074 mg/dL | TC (3 h): 60.8 mg/dL | TG (3 h): 50.2 mg/dL | TP (3 h): 5.1 g/dL | gamma-GTP (3 h): 1.6 IU/L | TERMINAL_BW (6 h): 198.5 g | APTT (6 h): 17.4 s | Bas (6 h): 0.2% | Eos (6 h): 0.8% | Fbg (6 h): 276.2 mg/dL | Hb (6 h): 13.3 g/dL | Ht (6 h): 41.6% | Lym (6 h): 79.4% | MCH (6 h): 20.5 pg | MCHC (6 h): 32% | MCV (6 h): 64.1 fL | Mono (6 h): 2.4% | Neu (6 h): 16.4% | PT (6 h): 13.5 s | Plat (6 h): 123.5 x10_4/uL | RBC (6 h): 649.6 x10_4/ul | Ret (6 h): 8% | WBC (6 h): 87.4 x10_2/uL | KIDNEY_L (6 h): 0.9 g | KIDNEY_R (6 h): 0.9 g | KIDNEY_TOTAL (6 h): 1.8 g | LIVER (6 h): 8.6 g | A/G (6 h): 0.9 | ALP (6 h): 1354.6 IU/L | ALT (6 h): 38.2 IU/L | AST (6 h): 78 IU/L | BUN (6 h): 9 mg/dL | CRE (6 h): 0.2 mg/dL | Ca (6 h): 10.7 mg/dL | Cl (6 h): 105 meq/L | DBIL (6 h): 0.01 mg/dL | GLC (6 h): 192.2 mg/dL | IP (6 h): 9.3 mg/dL | K (6 h): 4.3 meq/L | LDH (6 h): 105 IU/L | Na (6 h): 141.2 meq/L | PL (6 h): 128.6 mg/dL | RALB (6 h): 2.5 g/dL | TBIL (6 h): 0.072 mg/dL | TC (6 h): 72.2 mg/dL | TG (6 h): 53 mg/dL | TP (6 h): 5.2 g/dL | gamma-GTP (6 h): 1.8 IU/L | TERMINAL_BW (9 h): 200.2 g | APTT (9 h): 16.9 s | Bas (9 h): 0.2% | Eos (9 h): 1% | Fbg (9 h): 302.8 mg/dL | Hb (9 h): 13.3 g/dL | Ht (9 h): 41.6% | Lym (9 h): 74.2% | MCH (9 h): 19.8 pg | MCHC (9 h): 32% | MCV (9 h): 62 fL | Mono (9 h): 2.6% | Neu (9 h): 21.6% | PT (9 h): 13.5 s | Plat (9 h): 126.7 x10_4/uL | RBC (9 h): 670.8 x10_4/ul | Ret (9 h): 7.8% | WBC (9 h): 76.7 x10_2/uL | KIDNEY_L (9 h): 0.9 g | KIDNEY_R (9 h): 0.9 g | KIDNEY_TOTAL (9 h): 1.8 g | LIVER (9 h): 8.1 g | A/G (9 h): 0.9 | ALP (9 h): 1441.6 IU/L | ALT (9 h): 69 IU/L | AST (9 h): 70.4 IU/L | BUN (9 h): 7.6 mg/dL | CRE (9 h): 0.2 mg/dL | Ca (9 h): 10.7 mg/dL | Cl (9 h): 105.4 meq/L | DBIL (9 h): 0.006 mg/dL | GLC (9 h): 170.8 mg/dL | IP (9 h): 9.8 mg/dL | K (9 h): 3.9 meq/L | LDH (9 h): 132.4 IU/L | Na (9 h): 141.4 meq/L | PL (9 h): 125 mg/dL | RALB (9 h): 2.5 g/dL | TBIL (9 h): 0.074 mg/dL | TC (9 h): 70.8 mg/dL | TG (9 h): 61 mg/dL | TP (9 h): 5.3 g/dL | gamma-GTP (9 h): 1.4 IU/L | TERMINAL_BW (24 h): 216.8 g | APTT (24 h): 17.3 s | Bas (24 h): 0.4% | Eos (24 h): 1% | Fbg (24 h): 278 mg/dL | Hb (24 h): 13.3 g/dL | Ht (24 h): 41.1% | Lym (24 h): 76.4% | MCH (24 h): 20.7 pg | MCHC (24 h): 32.4% | MCV (24 h): 63.9 fL | Mono (24 h): 3.2% | Neu (24 h): 18.4% | PT (24 h): 13.1 s | Plat (24 h): 127.4 x10_4/uL | RBC (24 h): 642.4 x10_4/ul | Ret (24 h): 7.4% | WBC (24 h): 96.8 x10_2/uL | KIDNEY_L (24 h): 0.9 g | KIDNEY_R (24 h): 0.9 g | KIDNEY_TOTAL (24 h): 1.8 g | LIVER (24 h): 9.8 g | A/G (24 h): 0.9 | ALP (24 h): 1626.2 IU/L | ALT (24 h): 39.6 IU/L | AST (24 h): 77.2 IU/L | BUN (24 h): 14.6 mg/dL | CRE (24 h): 0.2 mg/dL | Ca (24 h): 10.9 mg/dL | Cl (24 h): 106.4 meq/L | DBIL (24 h): 0.012 mg/dL | GLC (24 h): 186.2 mg/dL | IP (24 h): 7.5 mg/dL | K (24 h): 4.2 meq/L | LDH (24 h): 98.2 IU/L | Na (24 h): 141.6 meq/L | PL (24 h): 140 mg/dL | RALB (24 h): 2.5 g/dL | TBIL (24 h): 0.058 mg/dL | TC (24 h): 74 mg/dL | TG (24 h): 96.8 mg/dL | TP (24 h): 5.4 g/dL | gamma-GTP (24 h): 1 IU/L
